Measurements taken from PMC10253536, “Bradykinin and Neurotensin Analogues as Potential Compounds in Colon Cancer Therapy” (International Journal of Molecular Sciences, 2023).
Non-standard residues stand in square brackets, D forms with d. Residues, ends and D or L forms follow the SMILES beside them. No end group written: not given here. *: point of attachment. Acetyl(1-adamantyl) = O=C(CC12CC3CC(CC(C3)C1)C2)*; Hyp = O=C(O)[C@@H]1C[C@@H](O)CN1; 2Thi = N[C@@H](Cc1cccs1)C(=O)O; Ac6c = NC1(C(=O)O)CCCCC1

Columns and labels:
[1] = Stability test in human plasma; details: for stability in human plasma (in words): 0.4 mg/mL, 37 °C, up to 24 h, TCA or formic acid/urea procedure depending on peptide, RP-HPLC 223 nm, at least triplicates
Protocol: To check the stability of the studied peptides in human plasma, 24 h incubation of peptides in the appropriate medium was performed. For the studies, two methods were used. The first one involved the presence of trichloroacetic acid (TCA) as a protein precipitating reagent, while the second one involved a mixture of formic acid and urea. […] The procedure with the mixture of the formic acid and urea was used for BK-3, BK-4, BK-6, and BK-8.
• A. TCA procedure for peptides: BK, BK-1, BK-2, BK-5, BK-7, NT, and NT analogues.
Peptide stability tests were performed according to a TCA stability assay based on the method used by Nguyen et al.. Peptides were dissolved in water, mixed with 25% human plasma to a final concentration of 0.4 mg/mL, and incubated at 37 °C with agitation (300 rpm, Thermomixer, Eppendorf AG, Hamburg, Germany). After 0, 1, 2, 3, 4, and 24 h, […] of the solution was taken and mixed with 15% TCA to obtain a final concentration of 3% (v/v). The samples were incubated in ice for 10 min and centrifuged for 10 min (12,000 rpm, Microfuge 16, Beckman Coulter, Brea, CA, USA).
In the second method, peptides were dissolved in water, mixed with 25% human plasma to a final concentration 0.4 mg/mL, and incubated at 37 °C with agitation (300 rpm, Thermomixer, Eppendorf AG, Hamburg, Germany). After 0, 1, 2, 3, 4, and 24 h, […] of the solution was taken and mixed with 25 μL of a mixture of 1050 µL 6 M urea, 330 µL formic acid, and 120 µL water to a final peptide concentration of 0.4 mg/mL. The samples were incubated in ice for 10 min and centrifuged for 10 min (12,000 rpm, Microfuge 16, Beckman Coulter, Brea, CA, USA). Supernatants were analyzed by RP-HPLC on column Kinetex (2.6 µm, XB-C18 100 Å 150 × 2.1 mm) (Phenomenex, Torrance, CA, USA) using a linear gradient of acetonitrile (1–80% over 20 min) with detection at 223 nm. Peptides were quantified by their peak areas relative to the initial peak areas (0 min). All stability tests were performed at least in triplicates. As control samples, peptides dissolved only in water under the same conditions were used.

HCT116 cells [2] = test: Cell death assay (7-AAD, flow cytometry), spherical HCT116 cells; type: cell-based, human; details: spherical HCT116, 500 µg/mL, 24 h, vs untreated control, n = 4
From the text: We evaluated the percentage of nonviable cells of HTC116 following analogue treatment via a flow cytometric assay using 7-Amino Actinomycin D (7-AAD) dye according to the procedure presented in the Materials and Methods Section 4.6. This dye is excluded by living cells but binds selectively to the DNA of damaged permeabilized cells. We learned that the number of 7AAD-positive cells changed according to different scenarios in CRC cells cultured in adherent and spherical forms following the incubation with BK and NT analogues (Figure 6).
Figure 6 Analysis of the viability of colorectal cancer HCT116 cells expanded in spherical (A,B) or adherent (C,D) form and treated with bradykinin (A,C) and neurotensin analogues (B,D) (500 µg/mL) for 24 h. Cells were incubated with 7-AAD and analyzed by flow cytometry. The y-axis presents the fold increase in the frequency of 7-AAD+ cells compared to untreated control cells. (* p < 0.05 vs. untreated control cells; • p < 0.05 vs. BK/NT-treated cells; ANOVA Kruskal–Wallis test, n = 4). Data presented as bars and whiskers representing the median with min–max values).
Following BK and NT analogue treatment of HCT116 cells, we evaluated the proportion of dead cells in our samples. For this purpose, we used a 7AAD Via Probe (BD Biosciences, San Jose, CA, USA). […]

HCT116 cells [3] = test: Flow cytometry phenotype (CD133, CD44, CD29), HCT116 colonospheres; type: cell-based, human; details: spherical HCT116, 500 µg/mL, 24 h, vs untreated control, n = 5
Protocol: Figure 4 The phenotype of the colorectal cancer HCT116 cell line expanded in the form of colonospheres and treated with (A,C,E) bradykinin and (B,D,F) neurotensin analogues (500 µg/mL) for 24 h. The data are presented as fold change of frequency of cells with given phenotype in relation to untreated control cells. The control value is set at a level of 1. Bars and whiskers represent the median with min–max values (* p < 0.05 vs. untreated control cells; • p < 0.05 vs. BK treated cells; ANOVA Kruskal–Wallis test, n = 5).
Similarly as for the adherent HTC116 cells, we also tested the spherical form with respect to the presence of CD29 and CD44 integrins on their surface but not only in CD133+ (Figure 4C,D) but also in CD133 (Figure 4E,F). In these studies, the count of CD133+, CD44+, and CD29+ cells was not affected in spherical culture, while at the same time, we observed that CSCs in colonospheres were more likely to change the level of these markers within the CD133-negative population. […] In contrast, the analogues BK-4, BK-6, and BK-8 decreased the number of these cells.
HCT116 in both adherent (5 × 10^4 cells/mL in 24-well plate) and spherical forms (8 × 10^5/mL cells in 24-well ultra-low attachment plates) were maintained in appropriate medium. […]

Compound: RPPGFSPFR [BK, Bradykinin]
- remaining at 4 h, 0.4 mg/mL ([1]; human, plasma): 96%
- remaining at 24 h, 0.4 mg/mL ([1]; human, plasma): ~50%

Compound: N=C(N)NCCC[C@H](NC(=O)C1(NC(=O)[C@@H](Cc2ccccc2)NC(=O)[C@H](CO)NC(=O)[C@H](Cc2cccs2)NC(=O)CNC(=O)[C@@H]2C[C@@H](O)CN2C(=O)[C@@H]2CCCN2C(=O)[C@H](CCCNC(=N)N)NC(=O)[C@@H](CCCNC(=N)N)NC(=O)CC23CC4CC(CC(C4)C2)C3)CCCCC1)C(=O)O [BK-4] ({Acetyl(1-adamantyl)}-[dR]RP[Hyp]G[2Thi]S[dF][Ac6c]R-OH)
- stability in human plasma (in words) ([1]; 25% human plasma): most stable

Compound: N=C(N)NCCC[C@H](NC(=O)[C@H](Cc1cccs1)NC(=O)C1(NC(=O)[C@H](CO)NC(=O)[C@H](Cc2cccs2)NC(=O)CNC(=O)[C@@H]2C[C@@H](O)CN2C(=O)[C@@H]2CCCN2C(=O)[C@H](CCCNC(=N)N)NC(=O)[C@@H](CCCNC(=N)N)NC(=O)CC23CC4CC(CC(C4)C2)C3)CCCCC1)C(=O)O [BK-3]
- stability in human plasma (in words) ([1]; 25% human plasma): least stable
- remaining at 24 h, 0.4 mg/mL ([1]; human, 25% human plasma): ~40%

Compound: N=C(N)NCCC[C@@H](N)C(=O)N[C@@H](CCCNC(=N)N)C(=O)N1CCC[C@H]1C(=O)N1C[C@H](O)C[C@H]1C(=O)NCC(=O)N[C@@H](Cc1cccs1)C(=O)N[C@@H](CO)C(=O)N[C@H](Cc1ccccc1)C(=O)NC1(C(=O)N[C@@H](CCCNC(=N)N)C(=O)O)CCCC1 [BK-2] (HELM PEPTIDE1{[dR].R.P.[Hyp].G.[O=C([C@H](Cc1cccs1)N[*:1])[*:2]].S.[dF].[O=C(C1(N[*:1])CCCC1)[*:2]].R}$$$$V2.0)
- stability in human plasma (in words) ([1]; 25% human plasma): most stable

Compound: N=C(N)NCCC[C@H](NC(=O)[C@H](Cc1cccs1)NC(=O)[C@H]1CCCCN1C(=O)[C@H](CO)NC(=O)[C@H](Cc1cccs1)NC(=O)CNC(=O)[C@@H]1C[C@@H](O)CN1C(=O)[C@@H]1CCCN1C(=O)[C@H](CCCNC(=N)N)NC(=O)[C@@H](CCCNC(=N)N)NC(=O)CC12CC3CC(CC(C3)C1)C2)C(=O)O [BK-8]
- remaining at 24 h, 0.4 mg/mL ([1]; human, 25% human plasma): 70%

Compound: CC(C)C[C@H](NC(=O)[C@@H](NC(=O)[C@H](Cc1ccc(O)cc1)NC(=O)[C@@H]1CCCN1C(=O)[C@H](CCCCN)NC(=O)[C@H](CCCCN)NC(=O)CNC(=O)[C@H](CCC(=O)O)NC(=O)[C@@H]1CCCN1)C(C)(C)C)C(=O)O [NT-14] (HELM PEPTIDE1{P.E.G.K.K.P.Y.[CC(C)(C)[C@H](N[*:1])C(=O)[*:2]].L}$$$$V2.0)
- stability in human plasma (in words) ([1]; 25% human plasma): better stability than the native peptide

Compound: N=C(N)NCCC[C@@H](N)C(=O)N[C@@H](CCCNC(=N)N)C(=O)N1CCC[C@H]1C(=O)N1C[C@H](O)C[C@H]1C(=O)NCC(=O)N[C@@H](Cc1cccs1)C(=O)N[C@@H](CO)C(=O)N[C@H](Cc1ccccc1)C(=O)N1CCCC[C@H]1C(=O)N[C@@H](CCCNC(=N)N)C(=O)O [BK-5] (HELM PEPTIDE1{[dR].R.P.[Hyp].G.[O=C([C@H](Cc1cccs1)N[*:1])[*:2]].S.[dF].[O=C([C@@H]1CCCCN1[*:1])[*:2]].R}$$$$V2.0)
- stability in human plasma (in words) ([1]; 25% human plasma): most stable

Compound: Neurotensin [NT]
- number of nonviable 7AAD+ cells, spherical form (HCT116 cells [2]): prominently increased
- CD133-CD44+CD29+ cell count in colonospheres (HCT116 cells [3]): significantly increasing
